Laboratory results: ChEMBL document CHEMBL5726504, “Substituted cyclopentanes, tetrahydrofuranes and pyrrolidines as orexin receptor antagonists” (2017)

Target: T1, Orexin/Hypocretin receptor type 1 (Homo sapiens, UniProt O43613)
T1 sequence (O43613 whole entry): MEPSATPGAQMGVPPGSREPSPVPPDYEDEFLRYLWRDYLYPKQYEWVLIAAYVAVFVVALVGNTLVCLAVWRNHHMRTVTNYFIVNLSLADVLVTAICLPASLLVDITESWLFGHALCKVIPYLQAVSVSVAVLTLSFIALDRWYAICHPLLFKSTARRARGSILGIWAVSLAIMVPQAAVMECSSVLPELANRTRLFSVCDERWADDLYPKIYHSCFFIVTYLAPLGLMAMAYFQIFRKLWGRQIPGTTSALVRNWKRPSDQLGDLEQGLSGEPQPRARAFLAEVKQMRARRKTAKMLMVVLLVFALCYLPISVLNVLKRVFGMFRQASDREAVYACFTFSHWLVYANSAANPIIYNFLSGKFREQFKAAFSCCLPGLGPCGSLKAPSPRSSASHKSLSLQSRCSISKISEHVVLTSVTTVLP
Experiment: FLIPR Assay: Orexin antagonist activity was determined by measuring changes in intracellular calcium levels using a Ca2+ sensitive fluorescent dye. The changes in fluorescent signal were monitored by Fluorescent Imaging Plate Reader (FLIPR) technology available from Molecular Devices, LLC, U.S.A. Orexin mediated increases in intracellular Ca2+ concentration were readily detected upon activation with orexin-A. Twenty-four hours prior to the assay, RBL-2H3 cells stably expressing either human orexin receptor 1 or human orexin receptor 2 were seeded in cell culture medium in black, clear-bottom 384-well plates (commercially available from Corning Inc., U.S.A.) and grown overnight at 37° C., 5% CO2. On the day of the assay, cell culture media was removed and cells were loaded with Calcium 5 Dye (commercially sold by Molecular Devices, LLC, U.S.A.) for 1 hour at 37° C., 5% CO2. Test compounds (at 10 point half log concentration response curves from 10 uM) were added to cells for 15 minutes prior to the addition of orexin-A to all wells, to achieve a final concentration that produces approximately an 80% maximal response.
Format: cell-based

IC50: 0.128 µM
Structure (SMILES): COc1ccc(Br)nc1C(=O)N[C@H]1CCC[C@@H]1Nc1nc2ccc(F)cc2s1
